Measured values reported in PubChem BioAssay (NCI).
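Step 1: Grow cells in 96-well plates. Step 2: Expose to compound for 48 hours at 5 concentrations. Step 3: Interpolate endpoints linearly; if unreached, use highest concentration. TGI marks complete inhibition of growth.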

Key:
Experiment in all cases: DTP human tumour cell line panel, 48 h
HOP-62 NSCLC = test system: HOP-62 NSCLC
K-562 leukemia = test system: K-562 leukemia
KM12 colon = test system: KM12 colon
M14 melanoma = test system: M14 melanoma
MDA-N = test system: MDA-N
RPMI-8226 leukemia = test system: RPMI-8226 leukemia
RXF 393 renal = test system: RXF 393 renal
SK-MEL-5 melanoma = test system: SK-MEL-5 melanoma
SN12C renal = test system: SN12C renal
SNB-19 CNS = test system: SNB-19 CNS
T-47D breast = test system: T-47D breast
UO-31 renal = test system: UO-31 renal

SMILES: O=C(O)c1nc2cc(Cl)ccc2[nH]c1=O
- TGI (HOP-62 NSCLC): > 100 µM
- TGI (K-562 leukemia): > 100 µM
- TGI (KM12 colon): > 100 µM
- TGI (M14 melanoma): > 100 µM
- TGI (MDA-N): > 100 µM
- TGI (RPMI-8226 leukemia): > 100 µM
- TGI (RXF 393 renal): > 100 µM
- TGI (SK-MEL-5 melanoma): > 100 µM
- TGI (SN12C renal): > 100 µM
- TGI (SNB-19 CNS): > 100 µM
- TGI (T-47D breast): > 100 µM
- TGI (UO-31 renal): > 100 µM

SMILES: COC1OC2COC1(OCc1ccccc1)C1OC(C)(C)OC21 (centres undefined)
- TGI (HOP-62 NSCLC): > 100 µM
- TGI (K-562 leukemia): > 100 µM
- TGI (KM12 colon): > 100 µM
- TGI (M14 melanoma): > 100 µM
- TGI (MDA-N): > 100 µM
- TGI (RPMI-8226 leukemia): > 100 µM
- TGI (RXF 393 renal): > 100 µM
- TGI (SK-MEL-5 melanoma): > 100 µM
- TGI (SN12C renal): > 100 µM
- TGI (SNB-19 CNS): > 100 µM
- TGI (T-47D breast): > 100 µM
- TGI (UO-31 renal): > 100 µM

SMILES: Cn1c(-c2ccc(C=O)o2)ccc1-c1ccc(C=O)o1
- TGI (HOP-62 NSCLC): > 100 µM
- TGI (K-562 leukemia): > 100 µM
- TGI (KM12 colon): > 100 µM
- TGI (M14 melanoma): > 100 µM
- TGI (MDA-N): > 100 µM
- TGI (RPMI-8226 leukemia): > 100 µM
- TGI (RXF 393 renal): > 100 µM
- TGI (SK-MEL-5 melanoma): > 100 µM
- TGI (SN12C renal): > 100 µM
- TGI (SNB-19 CNS): > 100 µM
- TGI (T-47D breast): > 100 µM
- TGI (UO-31 renal): > 100 µM

SMILES: Cc1ccc(S(=O)(=O)n2cc(C=O)c(-c3cn(S(=O)(=O)c4ccc(C)cc4)cc3-c3cn(S(=O)(=O)c4ccc(C)cc4)cc3C=O)c2)cc1
- TGI (HOP-62 NSCLC): > 100 µM
- TGI (K-562 leukemia): > 100 µM
- TGI (KM12 colon): > 100 µM
- TGI (M14 melanoma): > 100 µM
- TGI (MDA-N): > 100 µM
- TGI (RPMI-8226 leukemia): > 100 µM
- TGI (RXF 393 renal): > 100 µM
- TGI (SK-MEL-5 melanoma): > 100 µM
- TGI (SN12C renal): > 100 µM
- TGI (SNB-19 CNS): > 100 µM
- TGI (T-47D breast): > 100 µM
- TGI (UO-31 renal): > 100 µM

SMILES: COc1ccc(/[N+]([O-])=C/c2ccc(OC(=S)S)c(OC)c2)cc1
- TGI (HOP-62 NSCLC): > 100 µM
- TGI (K-562 leukemia): > 100 µM
- TGI (KM12 colon): 33.3 µM
- TGI (M14 melanoma): > 100 µM
- TGI (MDA-N): > 100 µM
- TGI (RPMI-8226 leukemia): > 100 µM
- TGI (RXF 393 renal): 50.9 µM
- TGI (SK-MEL-5 melanoma): 93.2 µM
- TGI (SN12C renal): > 100 µM
- TGI (SNB-19 CNS): > 100 µM
- TGI (T-47D breast): 99.5 µM
- TGI (UO-31 renal): > 100 µM

SMILES: C#C[C@]1(O)CC[C@H]2[C@@H]3CCC4=C/C(=N\OCCN5CCCCC5)CC[C@]4(C)[C@H]3CC[C@@]21C
- TGI (HOP-62 NSCLC): 24.4 µM
- TGI (K-562 leukemia): 8.27 µM
- TGI (KM12 colon): 12.3 µM
- TGI (M14 melanoma): 10.2 µM
- TGI (MDA-N): 4.21 µM
- TGI (RPMI-8226 leukemia): 15.3 µM
- TGI (RXF 393 renal): 11.3 µM
- TGI (SK-MEL-5 melanoma): 6.19 µM
- TGI (SN12C renal): 19.7 µM
- TGI (SNB-19 CNS): 19.1 µM
- TGI (T-47D breast): 19.3 µM
- TGI (UO-31 renal): 16 µM

SMILES: Cc1cc(N(CCC#N)CCC#N)ccc1/C(N=Nc1ccc([N+](=O)[O-])cc1)=N\NC(=O)c1cc(Cl)ccc1O
- TGI (HOP-62 NSCLC): > 100 µM
- TGI (K-562 leukemia): > 100 µM
- TGI (KM12 colon): > 100 µM
- TGI (M14 melanoma): > 100 µM
- TGI (MDA-N): > 100 µM
- TGI (RPMI-8226 leukemia): > 100 µM
- TGI (RXF 393 renal): > 100 µM
- TGI (SK-MEL-5 melanoma): > 100 µM
- TGI (SN12C renal): > 100 µM
- TGI (SNB-19 CNS): > 100 µM
- TGI (T-47D breast): 97.9 µM
- TGI (UO-31 renal): 56.8 µM

SMILES: CN(O)C(=O)CCC(NC(=O)CCC(N)C(=O)O)C(=O)NCC(=O)O (centres undefined)
- TGI (HOP-62 NSCLC): > 100 µM
- TGI (K-562 leukemia): > 100 µM
- TGI (KM12 colon): > 100 µM
- TGI (M14 melanoma): > 100 µM
- TGI (MDA-N): > 100 µM
- TGI (RPMI-8226 leukemia): > 100 µM
- TGI (RXF 393 renal): > 100 µM
- TGI (SK-MEL-5 melanoma): > 100 µM
- TGI (SN12C renal): > 100 µM
- TGI (SNB-19 CNS): > 100 µM
- TGI (T-47D breast): > 100 µM
- TGI (UO-31 renal): > 100 µM

SMILES: CCOC(=O)c1c(N)sc2c1CC(C)CC2 (centres undefined)
- TGI (HOP-62 NSCLC): > 100 µM
- TGI (K-562 leukemia): > 100 µM
- TGI (KM12 colon): > 100 µM
- TGI (M14 melanoma): > 100 µM
- TGI (MDA-N): > 100 µM
- TGI (RPMI-8226 leukemia): 75 µM
- TGI (RXF 393 renal): 44.9 µM
- TGI (SK-MEL-5 melanoma): 37.7 µM
- TGI (SN12C renal): > 100 µM
- TGI (SNB-19 CNS): > 100 µM
- TGI (T-47D breast): > 100 µM
- TGI (UO-31 renal): > 100 µM

SMILES: CC(C)(C)c1cc(/C=C(\C#N)C2=NCCO2)cc(C(C)(C)C)c1O
- TGI (HOP-62 NSCLC): > 38.9 µM
- TGI (K-562 leukemia): 16.5 µM
- TGI (KM12 colon): 15.6 µM
- TGI (M14 melanoma): 17 µM
- TGI (MDA-N): 16.6 µM
- TGI (RPMI-8226 leukemia): 4.74 µM
- TGI (RXF 393 renal): 14.7 µM
- TGI (SK-MEL-5 melanoma): 5.62 µM
- TGI (SN12C renal): 10.1 µM
- TGI (SNB-19 CNS): 15.5 µM
- TGI (T-47D breast): 9.13 µM
- TGI (UO-31 renal): 9.27 µM

SMILES: COC(=O)Nc1nc2ccc(NS(=O)(=O)c3cccs3)cc2[nH]1
- TGI (HOP-62 NSCLC): 82.4 µM
- TGI (K-562 leukemia): > 100 µM
- TGI (KM12 colon): 89.5 µM
- TGI (M14 melanoma): 76 µM
- TGI (MDA-N): 16.8 µM
- TGI (RPMI-8226 leukemia): > 100 µM
- TGI (RXF 393 renal): 85.8 µM
- TGI (SK-MEL-5 melanoma): > 100 µM
- TGI (SN12C renal): > 100 µM
- TGI (SNB-19 CNS): > 100 µM
- TGI (T-47D breast): 85.3 µM
- TGI (UO-31 renal): > 100 µM

SMILES: CCOC(=O)CNC(=O)C(CCC(=O)N(C)O)NC(=O)CCC(N)C(=O)O (centres undefined)
- TGI (HOP-62 NSCLC): > 100 µM
- TGI (K-562 leukemia): > 100 µM
- TGI (KM12 colon): > 100 µM
- TGI (M14 melanoma): > 100 µM
- TGI (MDA-N): > 100 µM
- TGI (RPMI-8226 leukemia): > 100 µM
- TGI (RXF 393 renal): > 100 µM
- TGI (SK-MEL-5 melanoma): > 100 µM
- TGI (SN12C renal): > 100 µM
- TGI (SNB-19 CNS): > 100 µM
- TGI (T-47D breast): > 100 µM
- TGI (UO-31 renal): > 100 µM

SMILES: C(=N\c1nc2cc3sc(/N=C/c4ccccc4)nc3cc2s1)/c1ccccc1
- TGI (HOP-62 NSCLC): > 100 µM
- TGI (K-562 leukemia): > 100 µM
- TGI (KM12 colon): > 100 µM
- TGI (M14 melanoma): > 100 µM
- TGI (MDA-N): > 100 µM
- TGI (RPMI-8226 leukemia): > 100 µM
- TGI (RXF 393 renal): > 100 µM
- TGI (SK-MEL-5 melanoma): > 100 µM
- TGI (SN12C renal): > 100 µM
- TGI (SNB-19 CNS): > 100 µM
- TGI (T-47D breast): > 100 µM
- TGI (UO-31 renal): > 100 µM

SMILES: CCOC(=O)C(NC(=O)c1cccc(Cl)c1)(Nc1ccc(S(=O)(=O)Nc2cc(C)on2)cc1)C(F)(F)F (centres undefined)
- TGI (HOP-62 NSCLC): > 100 µM
- TGI (K-562 leukemia): > 100 µM
- TGI (KM12 colon): > 100 µM
- TGI (M14 melanoma): > 100 µM
- TGI (MDA-N): > 100 µM
- TGI (RPMI-8226 leukemia): > 100 µM
- TGI (RXF 393 renal): > 100 µM
- TGI (SK-MEL-5 melanoma): > 100 µM
- TGI (SN12C renal): > 100 µM
- TGI (SNB-19 CNS): > 100 µM
- TGI (T-47D breast): > 100 µM
- TGI (UO-31 renal): > 100 µM

SMILES: O=S(=O)(O)c1ccc(N=Nc2ccccc2)cc1
- TGI (HOP-62 NSCLC): > 100 µM
- TGI (K-562 leukemia): > 100 µM
- TGI (KM12 colon): > 100 µM
- TGI (M14 melanoma): > 100 µM
- TGI (MDA-N): > 100 µM
- TGI (RPMI-8226 leukemia): > 100 µM
- TGI (RXF 393 renal): > 100 µM
- TGI (SK-MEL-5 melanoma): > 100 µM
- TGI (SN12C renal): > 100 µM
- TGI (SNB-19 CNS): > 100 µM
- TGI (T-47D breast): > 100 µM
- TGI (UO-31 renal): > 100 µM

SMILES: COc1ccc2c(c1)c1c3c(ccc4ncn2c43)N(CCO)CCN=1
- TGI (HOP-62 NSCLC): 0.476 µM
- TGI (K-562 leukemia): 0.228 µM
- TGI (KM12 colon): 1.22 µM
- TGI (M14 melanoma): 0.772 µM
- TGI (MDA-N): 0.808 µM
- TGI (RPMI-8226 leukemia): 2.56 µM
- TGI (RXF 393 renal): 0.473 µM
- TGI (SK-MEL-5 melanoma): 0.403 µM
- TGI (SN12C renal): 0.519 µM
- TGI (SNB-19 CNS): 1.46 µM
- TGI (T-47D breast): 1.42 µM
- TGI (UO-31 renal): 0.255 µM

SMILES: CCOC(=O)c1c(O)cn2c1[nH]c1cccc3cccc2c31
- TGI (HOP-62 NSCLC): > 100 µM
- TGI (K-562 leukemia): > 100 µM
- TGI (KM12 colon): > 100 µM
- TGI (M14 melanoma): > 100 µM
- TGI (MDA-N): > 100 µM
- TGI (RPMI-8226 leukemia): > 100 µM
- TGI (RXF 393 renal): > 100 µM
- TGI (SK-MEL-5 melanoma): > 100 µM
- TGI (SN12C renal): > 100 µM
- TGI (SNB-19 CNS): > 100 µM
- TGI (T-47D breast): > 100 µM
- TGI (UO-31 renal): > 100 µM
